Laboratory results reported in ChEMBL document CHEMBL5579874, “Design, Synthesis, and Biological Evaluation of 2,4-Diaminopyrimidine Derivatives as Potent CDK7 Inhibitors” (ACS Med Chem Lett, 2024).
One block for each compound: values may come before it.

Tests used:
[1] = biological target: Cyclin-dependent kinase 9 (Homo sapiens, UniProt P50750)
Description: Inhibition of CDK9 (unknown origin) using ULight 4EBP1 peptide as substrate incubated for 2 hrs by FRET assay

[2] = biological target: Cyclin-dependent kinase 1 (Homo sapiens, UniProt P06493); assay: Inhibition of CDK1 (unknown origin) using ULight 4EBP1 peptide as substrate incubated for 2 hrs by FRET assay
Ephrin type-A receptor 1 = biological target: T1, Ephrin type-A receptor 1 (Homo sapiens, UniProt P21709); assay: Inhibition of human EPHA1 incubated for 1 hr by HTRF assay
T1 sequence (P21709 whole entry): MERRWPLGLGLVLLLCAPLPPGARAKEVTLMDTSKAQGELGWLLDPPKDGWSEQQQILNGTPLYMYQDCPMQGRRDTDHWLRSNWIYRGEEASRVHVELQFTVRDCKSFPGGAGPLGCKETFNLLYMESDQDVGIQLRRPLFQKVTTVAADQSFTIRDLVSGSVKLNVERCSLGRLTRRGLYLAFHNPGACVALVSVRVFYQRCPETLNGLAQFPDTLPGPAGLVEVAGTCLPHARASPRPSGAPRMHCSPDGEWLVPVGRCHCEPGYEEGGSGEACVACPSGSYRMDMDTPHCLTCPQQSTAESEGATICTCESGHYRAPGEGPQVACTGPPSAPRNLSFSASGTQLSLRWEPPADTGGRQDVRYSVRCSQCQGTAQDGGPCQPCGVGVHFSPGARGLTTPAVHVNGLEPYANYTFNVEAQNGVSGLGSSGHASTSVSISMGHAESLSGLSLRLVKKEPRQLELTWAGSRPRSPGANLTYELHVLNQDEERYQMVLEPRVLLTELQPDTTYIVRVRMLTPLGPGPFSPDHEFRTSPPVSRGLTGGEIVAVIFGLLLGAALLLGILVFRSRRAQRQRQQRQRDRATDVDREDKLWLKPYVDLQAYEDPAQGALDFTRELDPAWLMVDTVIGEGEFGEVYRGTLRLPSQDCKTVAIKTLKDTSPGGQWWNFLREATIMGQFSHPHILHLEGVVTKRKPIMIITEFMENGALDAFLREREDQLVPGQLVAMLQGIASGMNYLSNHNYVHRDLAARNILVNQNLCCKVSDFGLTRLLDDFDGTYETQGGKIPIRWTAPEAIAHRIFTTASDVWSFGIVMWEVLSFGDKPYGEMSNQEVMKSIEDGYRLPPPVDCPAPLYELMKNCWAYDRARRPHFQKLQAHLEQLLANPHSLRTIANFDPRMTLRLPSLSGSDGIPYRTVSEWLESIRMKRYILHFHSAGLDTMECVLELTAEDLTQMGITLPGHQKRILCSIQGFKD

[3] = biological target: Cyclin-dependent kinase 6 (Homo sapiens, UniProt Q00534); assay: Inhibition of CDK6 (unknown origin) using ULight 4EBP1 peptide as substrate incubated for 2 hrs by FRET assay
[4] = biological target: Epidermal growth factor receptor (Homo sapiens, UniProt P00533); assay: Inhibition of human EGFR incubated for 1 hr by HTRF assay
[5] = biological target: T2, Tyrosine-protein kinase Tec (Homo sapiens, UniProt P42680); assay: Inhibition of human TEC incubated for 1 hr by HTRF assay
T2 sequence (P42680 whole entry): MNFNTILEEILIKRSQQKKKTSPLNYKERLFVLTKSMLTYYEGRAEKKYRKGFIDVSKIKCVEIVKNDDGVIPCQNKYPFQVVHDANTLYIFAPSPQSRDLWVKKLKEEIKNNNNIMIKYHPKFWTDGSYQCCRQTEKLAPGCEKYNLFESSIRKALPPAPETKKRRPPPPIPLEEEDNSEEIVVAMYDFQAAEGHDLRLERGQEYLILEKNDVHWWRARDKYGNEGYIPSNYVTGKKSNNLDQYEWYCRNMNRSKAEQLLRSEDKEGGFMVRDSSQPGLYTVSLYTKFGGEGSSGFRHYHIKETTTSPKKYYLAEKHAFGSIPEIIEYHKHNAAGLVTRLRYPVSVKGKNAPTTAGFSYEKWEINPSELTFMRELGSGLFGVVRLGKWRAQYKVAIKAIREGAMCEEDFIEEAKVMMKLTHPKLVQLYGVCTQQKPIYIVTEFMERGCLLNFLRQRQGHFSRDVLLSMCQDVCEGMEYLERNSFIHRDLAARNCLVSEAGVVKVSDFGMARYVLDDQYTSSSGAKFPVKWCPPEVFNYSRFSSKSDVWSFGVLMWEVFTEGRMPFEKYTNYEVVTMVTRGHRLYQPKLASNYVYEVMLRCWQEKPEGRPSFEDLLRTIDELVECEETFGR

[6] = biological target: Cyclin-dependent kinase 4 (Homo sapiens, UniProt P11802); assay: Inhibition of CDK4 (unknown origin) using ULight 4EBP1 peptide as substrate incubated for 2 hrs by FRET assay
Aurora kinase A = biological target: T3, Aurora kinase A (Homo sapiens, UniProt O14965); assay: Inhibition of Aurora A (unknown origin)
T3 sequence (O14965 whole entry): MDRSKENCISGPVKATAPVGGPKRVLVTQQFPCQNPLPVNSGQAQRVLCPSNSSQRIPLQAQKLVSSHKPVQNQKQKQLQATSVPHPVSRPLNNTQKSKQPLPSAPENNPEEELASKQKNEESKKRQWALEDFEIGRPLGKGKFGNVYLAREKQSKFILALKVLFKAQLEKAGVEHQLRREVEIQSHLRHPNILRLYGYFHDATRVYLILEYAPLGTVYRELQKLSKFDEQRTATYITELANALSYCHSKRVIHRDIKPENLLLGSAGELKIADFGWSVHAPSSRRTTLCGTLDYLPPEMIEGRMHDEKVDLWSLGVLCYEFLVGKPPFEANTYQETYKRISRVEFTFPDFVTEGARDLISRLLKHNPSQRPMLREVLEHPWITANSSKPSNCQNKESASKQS

[7] = biological target: Insulin-like growth factor 1 receptor (Homo sapiens, UniProt P08069); assay: Inhibition of human IGF1R incubated for 1 hr by HTRF assay
[8] = biological target: Tyrosine-protein kinase HCK (Homo sapiens, UniProt P08631); assay: Inhibition of human HCK incubated for 1 hr by HTRF assay
[9] = biological target: Tyrosine-protein kinase Blk (Homo sapiens, UniProt P51451); assay: Inhibition of human BLK incubated for 1 hr by HTRF assay
[10] = biological target: Cyclin-dependent kinase 3 (Homo sapiens, UniProt Q00526); assay: Inhibition of CDK3 (unknown origin) using ULight 4EBP1 peptide as substrate incubated for 2 hrs by FRET assay
[11] = biological target: Cyclin-dependent kinase 2 (Homo sapiens, UniProt P24941); assay: Inhibition of CDK2 (unknown origin) using ULight 4EBP1 peptide as substrate incubated for 2 hrs by FRET assay
[12] = biological target: Tyrosine-protein kinase BTK (Homo sapiens, UniProt Q06187); assay: Inhibition of human recombinant BTK incubated for 1 hr by HTRF assay
[13] = biological target: Hepatocyte growth factor receptor (Homo sapiens, UniProt P08581); assay: Inhibition of human MET incubated for 1 hr by HTRF assay
[14] = biological target: Cyclin-dependent kinase 5 (Homo sapiens, UniProt Q00535); assay: Inhibition of CDK5 (unknown origin) using ULight 4EBP1 peptide as substrate incubated for 2 hrs by FRET assay
[15] = biological target: Tyrosine-protein kinase Lyn (Homo sapiens, UniProt P07948); assay: Inhibition of human LYN incubated for 1 hr by HTRF assay
[16] = biological target: T4, Cytoplasmic tyrosine-protein kinase BMX (Homo sapiens, UniProt P51813); assay: Inhibition of human BMX incubated for 1 hr by HTRF assay
T4 sequence (P51813 whole entry): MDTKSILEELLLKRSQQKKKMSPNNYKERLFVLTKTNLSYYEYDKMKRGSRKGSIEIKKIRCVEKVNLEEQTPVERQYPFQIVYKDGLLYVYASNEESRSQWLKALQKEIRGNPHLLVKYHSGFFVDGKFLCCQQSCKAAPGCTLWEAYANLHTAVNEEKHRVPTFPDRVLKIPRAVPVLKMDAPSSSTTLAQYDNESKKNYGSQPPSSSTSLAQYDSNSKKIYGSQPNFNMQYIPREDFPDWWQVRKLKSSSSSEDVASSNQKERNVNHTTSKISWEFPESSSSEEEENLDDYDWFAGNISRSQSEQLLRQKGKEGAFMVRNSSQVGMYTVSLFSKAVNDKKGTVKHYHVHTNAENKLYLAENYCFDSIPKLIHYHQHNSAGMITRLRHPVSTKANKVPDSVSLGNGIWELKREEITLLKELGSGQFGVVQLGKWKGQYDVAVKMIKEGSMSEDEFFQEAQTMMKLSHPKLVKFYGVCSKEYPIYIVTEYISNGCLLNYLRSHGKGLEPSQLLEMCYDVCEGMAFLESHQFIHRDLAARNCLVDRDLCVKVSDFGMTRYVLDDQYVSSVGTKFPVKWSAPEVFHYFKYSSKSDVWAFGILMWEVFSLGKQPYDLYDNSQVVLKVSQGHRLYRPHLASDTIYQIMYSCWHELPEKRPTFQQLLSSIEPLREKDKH

MV4-11 = assay: Antiproliferative activity against human MV4-11 cells assessed as inhibition of cell growth incubated for 72 hrs by CCK-8 assay; format: functional, cell-based; conditions: MV4-11, 72 h
[17] = biological target: Cyclin-dependent kinase 7 (Homo sapiens, UniProt P50613); assay: Inhibition of CDK7 (unknown origin) using ULight 4EBP1 peptide as substrate incubated for 2 hrs by FRET assay

IC50 [1]: 0.00357 µM
SMILES: COC[C@@H](C)N[C@H]1CC[C@H](Nc2cc(-c3cccc(NCC4(C#N)CCOCC4)n3)c(Cl)cn2)CC1

IC50 [2]: > 10 µM
IC50 (Ephrin type-A receptor 1): 2.48 µM
IC50 [3]: 1.35 µM
IC50 [4]: > 10 µM
IC50 [5]: > 10 µM
IC50 [6]: 0.645 µM
IC50 (Aurora kinase A): 1.32 µM
IC50 [7]: 2.89 µM
IC50 [8]: > 10 µM
IC50 [9]: > 10 µM
IC50 [10]: 0.37 µM
IC50 [11]: 0.735 µM
IC50 [12]: > 10 µM
IC50 [13]: > 10 µM
IC50 [14]: 3.68 µM
IC50 [15]: > 10 µM
IC50 [16]: > 10 µM
SMILES: CC(=O)N[C@H]1CC[C@H](c2ncc(Cl)c(Nc3ccccc3S(=O)(=O)C(C)C)n2)CC1

IC50 (MV4-11): 0.0307 µM
SMILES: CN(C)C/C=C/C(=O)Nc1ccc(C(=O)Nc2cccc(Nc3ncc(Cl)c(-c4c[nH]c5ccccc45)n3)c2)cc1

SMILES: Cn1ncc(-c2nc(N[C@H]3CC[C@H](N)CC3)ncc2Cl)c1CC1CC1 [BTX-A51]
IC50 [1]: 0.0186 µM
IC50 [17]: 0.272 µM
IC50 (MV4-11): 0.159 µM
